Assay results taken from ChEMBL document CHEMBL5465560, “Selectivity Literature for EUbOPEN Chemogenomic Library” (2024).

What was measured:
[1] = system: Tyrosine-protein kinase ABL1 (Homo sapiens), P00519 [T315I]; experiment: Selectivity interaction (KinomeScan (DiscoverX)) EUB0000229b ABL1; settings: at 1 µM
[2] = molecular target: T1, Receptor-interacting serine/threonine-protein kinase 4 (Homo sapiens) (UniProt P57078); experiment: Selectivity interaction (KinomeScan (DiscoverX)) EUB0000045b RIPK4
T1 sequence (whole entry): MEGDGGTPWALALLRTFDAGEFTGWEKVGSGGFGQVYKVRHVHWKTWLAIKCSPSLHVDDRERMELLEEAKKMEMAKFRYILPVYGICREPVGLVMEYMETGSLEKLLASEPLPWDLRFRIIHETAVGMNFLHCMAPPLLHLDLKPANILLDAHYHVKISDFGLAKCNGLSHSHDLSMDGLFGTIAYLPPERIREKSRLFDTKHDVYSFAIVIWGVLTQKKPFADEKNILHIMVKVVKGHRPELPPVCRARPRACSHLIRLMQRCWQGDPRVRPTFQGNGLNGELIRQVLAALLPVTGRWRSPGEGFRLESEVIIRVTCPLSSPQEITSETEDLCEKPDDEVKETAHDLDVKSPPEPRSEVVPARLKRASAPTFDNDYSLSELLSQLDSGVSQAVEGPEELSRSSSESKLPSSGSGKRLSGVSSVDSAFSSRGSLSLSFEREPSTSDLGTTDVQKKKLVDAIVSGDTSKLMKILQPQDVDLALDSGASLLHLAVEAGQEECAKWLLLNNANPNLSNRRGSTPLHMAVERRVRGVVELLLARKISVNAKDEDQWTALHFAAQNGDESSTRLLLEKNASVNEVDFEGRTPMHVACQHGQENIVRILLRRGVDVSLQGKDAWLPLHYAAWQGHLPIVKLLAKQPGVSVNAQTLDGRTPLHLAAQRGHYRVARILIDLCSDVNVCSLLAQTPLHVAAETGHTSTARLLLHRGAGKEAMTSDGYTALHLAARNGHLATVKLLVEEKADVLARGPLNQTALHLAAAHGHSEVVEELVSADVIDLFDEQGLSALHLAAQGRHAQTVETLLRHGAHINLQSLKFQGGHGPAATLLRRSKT

D(3) dopamine receptor = D(3) dopamine receptor (Homo sapiens, UniProt P35462); experiment: Selectivity interaction (GPCR panel (PDSP screen)) EUB0001079a DRD3; settings: at 10 µM
Sequence of D(3) dopamine receptor (P35462 whole entry): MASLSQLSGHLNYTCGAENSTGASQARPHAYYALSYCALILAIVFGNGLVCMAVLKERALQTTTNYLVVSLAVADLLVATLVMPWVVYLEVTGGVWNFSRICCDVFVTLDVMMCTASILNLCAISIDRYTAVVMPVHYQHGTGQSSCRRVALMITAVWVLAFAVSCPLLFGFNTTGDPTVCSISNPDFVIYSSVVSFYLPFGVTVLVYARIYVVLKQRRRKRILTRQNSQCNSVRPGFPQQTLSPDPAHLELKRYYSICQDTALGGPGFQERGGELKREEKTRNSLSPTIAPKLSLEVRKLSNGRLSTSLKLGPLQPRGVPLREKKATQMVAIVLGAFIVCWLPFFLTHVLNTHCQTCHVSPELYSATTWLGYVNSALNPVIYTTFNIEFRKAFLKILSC

[3] = molecular target: Interferon-induced, double-stranded RNA-activated protein kinase (Homo sapiens) (UniProt P19525); settings: at 10 µM
Sequence of Interferon-induced, double-stranded RNA-activated protein kinase (Homo sapiens) (P19525 whole entry): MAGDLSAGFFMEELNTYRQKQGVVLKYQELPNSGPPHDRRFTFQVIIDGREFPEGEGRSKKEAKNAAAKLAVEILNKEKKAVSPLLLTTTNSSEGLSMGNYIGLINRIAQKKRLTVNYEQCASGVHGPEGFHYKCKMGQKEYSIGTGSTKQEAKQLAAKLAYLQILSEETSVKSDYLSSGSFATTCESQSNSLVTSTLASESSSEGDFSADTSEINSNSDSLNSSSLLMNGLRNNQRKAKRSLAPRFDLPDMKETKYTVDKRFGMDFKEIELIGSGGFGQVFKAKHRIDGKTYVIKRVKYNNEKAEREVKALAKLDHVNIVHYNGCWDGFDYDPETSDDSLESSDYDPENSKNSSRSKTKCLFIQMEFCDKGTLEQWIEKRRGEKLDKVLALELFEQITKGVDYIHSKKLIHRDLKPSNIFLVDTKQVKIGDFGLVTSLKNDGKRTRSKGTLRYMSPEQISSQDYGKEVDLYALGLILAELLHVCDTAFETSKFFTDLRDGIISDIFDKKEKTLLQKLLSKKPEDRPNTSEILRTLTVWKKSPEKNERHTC

Nav1.5 (SCN5A) = Nav1.5 (SCN5A) (Homo sapiens, UniProt Q14524); experiment: Selectivity interaction (Panel of kinases, GPCRs, ion channels and transporters (enzymatic assay)) EUB0000223bCl SCN5A
Sequence of Nav1.5 (SCN5A) (Q14524 whole entry): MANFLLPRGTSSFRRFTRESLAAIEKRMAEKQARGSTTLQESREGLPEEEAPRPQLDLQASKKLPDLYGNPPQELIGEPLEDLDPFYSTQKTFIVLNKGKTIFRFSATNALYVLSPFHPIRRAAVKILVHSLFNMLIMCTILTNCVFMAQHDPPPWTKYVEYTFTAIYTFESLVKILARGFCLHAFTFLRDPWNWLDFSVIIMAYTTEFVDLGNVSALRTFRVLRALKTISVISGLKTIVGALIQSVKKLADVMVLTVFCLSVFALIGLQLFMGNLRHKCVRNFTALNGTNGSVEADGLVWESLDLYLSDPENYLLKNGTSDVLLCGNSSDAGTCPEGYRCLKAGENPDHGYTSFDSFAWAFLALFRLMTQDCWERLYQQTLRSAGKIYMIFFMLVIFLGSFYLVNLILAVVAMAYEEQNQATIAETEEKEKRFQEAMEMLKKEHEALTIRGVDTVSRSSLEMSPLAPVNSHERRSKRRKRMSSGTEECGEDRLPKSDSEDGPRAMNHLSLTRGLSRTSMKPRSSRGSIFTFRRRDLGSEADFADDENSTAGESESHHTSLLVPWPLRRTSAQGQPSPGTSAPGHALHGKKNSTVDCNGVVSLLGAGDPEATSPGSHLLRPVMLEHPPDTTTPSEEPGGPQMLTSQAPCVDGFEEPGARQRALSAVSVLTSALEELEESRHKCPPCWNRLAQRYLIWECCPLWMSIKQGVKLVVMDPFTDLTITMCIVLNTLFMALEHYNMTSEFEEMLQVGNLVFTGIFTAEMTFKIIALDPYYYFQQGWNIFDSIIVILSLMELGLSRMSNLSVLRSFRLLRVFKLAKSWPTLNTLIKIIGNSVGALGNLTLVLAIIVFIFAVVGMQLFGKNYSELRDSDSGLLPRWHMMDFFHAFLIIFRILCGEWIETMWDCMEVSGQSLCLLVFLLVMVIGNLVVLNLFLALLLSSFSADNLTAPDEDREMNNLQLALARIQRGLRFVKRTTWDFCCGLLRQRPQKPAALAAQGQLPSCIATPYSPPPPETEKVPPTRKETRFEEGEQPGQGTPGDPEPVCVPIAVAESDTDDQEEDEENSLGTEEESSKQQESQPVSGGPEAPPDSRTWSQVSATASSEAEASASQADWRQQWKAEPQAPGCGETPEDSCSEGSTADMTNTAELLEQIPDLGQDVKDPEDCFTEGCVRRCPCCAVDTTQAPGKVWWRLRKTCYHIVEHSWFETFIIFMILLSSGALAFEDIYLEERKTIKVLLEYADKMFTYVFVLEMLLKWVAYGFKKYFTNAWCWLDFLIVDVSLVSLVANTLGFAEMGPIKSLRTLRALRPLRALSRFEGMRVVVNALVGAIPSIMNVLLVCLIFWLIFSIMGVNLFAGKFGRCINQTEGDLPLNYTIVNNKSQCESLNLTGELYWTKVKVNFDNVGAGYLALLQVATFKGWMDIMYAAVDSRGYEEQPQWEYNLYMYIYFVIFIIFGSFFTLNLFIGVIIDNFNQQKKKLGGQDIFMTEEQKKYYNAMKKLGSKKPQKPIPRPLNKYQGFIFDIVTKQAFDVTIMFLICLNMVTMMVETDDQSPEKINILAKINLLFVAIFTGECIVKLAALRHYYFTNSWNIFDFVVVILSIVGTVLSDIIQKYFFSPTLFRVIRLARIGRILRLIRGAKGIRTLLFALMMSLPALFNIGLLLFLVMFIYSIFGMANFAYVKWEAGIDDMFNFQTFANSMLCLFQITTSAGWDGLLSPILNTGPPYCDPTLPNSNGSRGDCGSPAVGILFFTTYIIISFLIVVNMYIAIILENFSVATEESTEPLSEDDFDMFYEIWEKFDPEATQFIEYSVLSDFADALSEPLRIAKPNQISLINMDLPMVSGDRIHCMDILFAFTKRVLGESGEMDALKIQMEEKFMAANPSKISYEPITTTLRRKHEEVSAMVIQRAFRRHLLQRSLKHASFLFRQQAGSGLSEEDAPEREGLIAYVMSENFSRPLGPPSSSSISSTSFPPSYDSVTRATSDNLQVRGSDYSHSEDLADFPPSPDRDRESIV

[4] = molecular target: Mitogen-activated protein kinase 10 (Homo sapiens, UniProt P53779); experiment: Selectivity interaction (ActivX KiNativ screen (ex vivo kinase selectivity in human PBMCs)) EUB0001619a MAPK10; type: cell-based; settings: PBMC, at 1 µM
Sequence of Mitogen-activated protein kinase 10 (P53779 whole entry): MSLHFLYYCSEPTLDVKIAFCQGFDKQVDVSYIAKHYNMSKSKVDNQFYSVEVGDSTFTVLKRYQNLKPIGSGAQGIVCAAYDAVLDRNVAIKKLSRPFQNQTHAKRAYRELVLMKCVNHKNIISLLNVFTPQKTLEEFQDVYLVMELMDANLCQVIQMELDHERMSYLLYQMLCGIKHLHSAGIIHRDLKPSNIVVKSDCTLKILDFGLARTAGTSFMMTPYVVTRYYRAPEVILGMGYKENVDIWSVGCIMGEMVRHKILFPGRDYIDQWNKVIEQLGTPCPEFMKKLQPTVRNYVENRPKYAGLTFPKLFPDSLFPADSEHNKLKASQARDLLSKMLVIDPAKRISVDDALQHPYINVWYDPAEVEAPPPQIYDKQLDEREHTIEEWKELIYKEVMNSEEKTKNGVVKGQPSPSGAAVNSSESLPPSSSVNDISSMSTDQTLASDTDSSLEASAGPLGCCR

[5] = molecular target: Hepatocyte growth factor receptor (Homo sapiens, UniProt P08581); experiment: Selectivity interaction (Kinase panel (literature)) EUB0001199aCl MET; settings: at 1 µM
[6] = molecular target: T2, Serine/threonine-protein kinase TAO1 (Homo sapiens) (UniProt Q7L7X3); experiment: Selectivity interaction (KinomeScan (DiscoverX)) EUB0000607a TAOK1; settings: at 10 µM
T2 sequence (whole entry): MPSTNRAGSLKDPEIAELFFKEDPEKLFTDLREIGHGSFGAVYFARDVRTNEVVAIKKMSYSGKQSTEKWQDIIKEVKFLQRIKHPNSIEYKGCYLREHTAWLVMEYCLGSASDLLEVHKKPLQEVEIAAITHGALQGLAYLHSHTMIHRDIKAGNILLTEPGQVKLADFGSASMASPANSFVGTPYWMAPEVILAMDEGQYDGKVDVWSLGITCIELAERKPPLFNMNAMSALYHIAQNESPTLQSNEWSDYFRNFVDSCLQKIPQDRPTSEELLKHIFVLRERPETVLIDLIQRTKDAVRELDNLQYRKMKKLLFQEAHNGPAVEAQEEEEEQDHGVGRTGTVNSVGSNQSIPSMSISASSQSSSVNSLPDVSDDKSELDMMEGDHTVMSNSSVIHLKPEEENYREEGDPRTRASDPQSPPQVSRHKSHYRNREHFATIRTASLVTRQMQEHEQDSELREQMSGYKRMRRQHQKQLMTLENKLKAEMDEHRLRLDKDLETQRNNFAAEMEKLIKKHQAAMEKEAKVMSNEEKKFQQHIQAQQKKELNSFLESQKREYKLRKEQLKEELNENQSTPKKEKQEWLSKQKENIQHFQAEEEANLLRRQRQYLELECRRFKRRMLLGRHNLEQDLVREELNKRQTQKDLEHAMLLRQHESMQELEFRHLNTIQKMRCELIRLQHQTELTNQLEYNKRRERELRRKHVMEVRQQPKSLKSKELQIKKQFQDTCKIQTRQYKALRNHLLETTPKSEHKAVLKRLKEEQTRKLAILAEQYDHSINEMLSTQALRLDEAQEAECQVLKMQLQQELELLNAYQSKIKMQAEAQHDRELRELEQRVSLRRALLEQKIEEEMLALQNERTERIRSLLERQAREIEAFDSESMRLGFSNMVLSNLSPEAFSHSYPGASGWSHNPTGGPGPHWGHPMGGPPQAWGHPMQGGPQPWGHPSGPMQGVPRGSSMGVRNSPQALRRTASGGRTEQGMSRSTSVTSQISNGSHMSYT

[7] = molecular target: 5-hydroxytryptamine receptor 2A (Homo sapiens, UniProt P28223); experiment: Selectivity interaction (Panel of kinases, GPCRs, ion channels and transporters (enzymatic assay)) EUB0000266bCl HTR2A
Sequence of 5-hydroxytryptamine receptor 2A (P28223 whole entry): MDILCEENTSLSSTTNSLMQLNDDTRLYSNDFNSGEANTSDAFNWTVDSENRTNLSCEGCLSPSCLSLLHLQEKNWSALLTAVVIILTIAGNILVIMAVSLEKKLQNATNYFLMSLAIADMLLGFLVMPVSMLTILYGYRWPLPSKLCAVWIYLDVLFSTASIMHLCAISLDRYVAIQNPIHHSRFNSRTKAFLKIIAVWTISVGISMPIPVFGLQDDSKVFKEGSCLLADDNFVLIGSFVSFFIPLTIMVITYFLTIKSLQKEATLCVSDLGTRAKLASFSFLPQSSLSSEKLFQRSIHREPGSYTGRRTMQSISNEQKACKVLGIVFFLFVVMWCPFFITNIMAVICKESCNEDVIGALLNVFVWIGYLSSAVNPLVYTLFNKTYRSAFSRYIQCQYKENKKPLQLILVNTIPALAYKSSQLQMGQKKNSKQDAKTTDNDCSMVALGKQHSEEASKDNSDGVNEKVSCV

[8] = molecular target: Atypical kinase COQ8A, mitochondrial (Homo sapiens, UniProt Q8NI60); settings: at 10 µM
Sequence of Atypical kinase COQ8A, mitochondrial (Q8NI60 163-647 limits assumed): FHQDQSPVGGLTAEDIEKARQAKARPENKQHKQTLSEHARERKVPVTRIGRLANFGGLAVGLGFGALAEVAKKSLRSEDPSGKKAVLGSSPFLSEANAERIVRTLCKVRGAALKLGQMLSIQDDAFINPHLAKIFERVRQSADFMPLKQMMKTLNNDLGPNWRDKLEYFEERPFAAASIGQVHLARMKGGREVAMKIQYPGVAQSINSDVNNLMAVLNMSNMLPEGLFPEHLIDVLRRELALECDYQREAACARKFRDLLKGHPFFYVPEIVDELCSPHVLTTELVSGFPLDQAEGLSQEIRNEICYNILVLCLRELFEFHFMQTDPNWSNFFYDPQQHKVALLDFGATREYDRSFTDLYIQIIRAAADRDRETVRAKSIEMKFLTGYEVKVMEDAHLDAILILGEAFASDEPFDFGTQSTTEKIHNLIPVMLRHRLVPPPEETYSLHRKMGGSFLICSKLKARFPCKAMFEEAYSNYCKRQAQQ

[9] = molecular target: Mitogen-activated protein kinase 9 (Homo sapiens, UniProt P45984); settings: at 10 µM
[10] = molecular target: Proto-oncogene tyrosine-protein kinase Src (Homo sapiens, UniProt P12931); experiment: Selectivity interaction (Ambit KINOMEscan and KiNATiv profiling in Jurkat cells) EUB0000090b SRC; type: cell-based; settings: at 1 µM
Sequence of Proto-oncogene tyrosine-protein kinase Src (P12931 2-536 limits assumed): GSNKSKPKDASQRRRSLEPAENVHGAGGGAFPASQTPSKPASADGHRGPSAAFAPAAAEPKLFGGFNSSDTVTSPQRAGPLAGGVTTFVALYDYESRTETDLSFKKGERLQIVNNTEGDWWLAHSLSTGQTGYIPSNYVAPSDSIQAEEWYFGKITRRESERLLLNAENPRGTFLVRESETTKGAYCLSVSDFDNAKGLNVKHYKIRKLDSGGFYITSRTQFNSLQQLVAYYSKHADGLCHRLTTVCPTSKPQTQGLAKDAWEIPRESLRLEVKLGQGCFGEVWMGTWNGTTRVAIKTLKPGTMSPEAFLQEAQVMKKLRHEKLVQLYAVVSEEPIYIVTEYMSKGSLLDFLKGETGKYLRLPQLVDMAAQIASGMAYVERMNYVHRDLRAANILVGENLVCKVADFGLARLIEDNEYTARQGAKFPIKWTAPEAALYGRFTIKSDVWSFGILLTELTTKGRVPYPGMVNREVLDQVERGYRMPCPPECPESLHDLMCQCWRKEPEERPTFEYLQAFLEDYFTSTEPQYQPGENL

Question: How did the % binding [1] turn out when `COc1cc(N(C)c2ccnc3ccc(C(F)(F)F)cc23)cc(OC)c1OC` was run?
Answer: The % binding was 85%.

Question: For `C=CC(=O)Nc1cc(-n2c(=O)ccc3cnc4ccc(-c5ccc(NS(C)(=O)=O)cc5)cc4c32)ccc1C`, which % of control ([2]; at 1 µM) is on record?
Answer: The % of control was 100%.

Question: And the % of control ([2]; at 10 µM)?
Answer: Its % of control is 100%.

Question: With `Nc1cnc(N2CCc3cc(S(=O)(=O)Nc4c(F)cc(Cl)cc4F)cc(N4CCCC4=O)c32)nc1` [TP-020n] as the compound, how does the % of inhibition (D(3) dopamine receptor) read?
Answer: The % of inhibition was 7.88%.

Question: For `Cc1cc([C@@H](C)Nc2ccccc2C(=O)O)c2nc(N3CCOCC3)cc(=O)n2c1` [AZD-6482], which % of control [3] is on record?
Answer: Its % of control is 99%.

Question: `COc1cc(C(=O)N2CC[C@@H](O)[C@@H](N)C2)cc2nc(-c3cc4ccccc4n3CC3CC3)n(C)c12` was tested. Which XC50 (Nav1.5 (SCN5A)) did it give?
Answer: Its XC50 is 39.8 µM.

Question: How did the % of inhibition [4] turn out when `N#Cc1cccc(-c2c[nH]c3ncnc(N4CCOCC4)c23)c1` was run?
Answer: The % of inhibition was 5%.

Question: For `CN1Cc2nccc(-c3cn(C)nc3-c3ccc(F)cc3)c2C1=O`, which % of inhibition [5] is on record?
Answer: The % of inhibition was 10%.

Question: How did the % of control [6] turn out when `CNC(=O)Nc1ccc(-c2nc(N3CC4CCC(C3)O4)c3cnn(C4CCC5(CC4)OCCO5)c3n2)cc1` was run?
Answer: The % of control was 100%.

Question: Which pXC50 [7] does the source give for `CCn1c(-c2nc3cc(C(=O)N4CCCC(N)C4)ccc3n2C)cc2ccccc21` (stereo not drawn) here?
Answer: Its pXC50 is < 4.4 M.

Question: `CCN(CC)CCCCNc1ncc2cc(-c3cc(OC)cc(OC)c3)c(NC(=O)NC(C)(C)C)nc2n1` was tested. Which % of control [8] did it give?
Answer: Its % of control is 100%.

Question: What about the % of control [9] of the same compound?
Answer: Its % of control is 100%.

Question: Which % of control [10] does the source give for `CN(C)C/C=C/C(=O)Nc1ccc(C(=O)N2CCCC(Nc3ncc(Cl)c(-c4c[nH]c5ccccc45)n3)C2)cc1` (stereo not drawn) here?
Answer: The % of control was 90%.
